pIC50: −log10 of the molar value.

FL-SMARCA4, sequence (P51532 whole entry): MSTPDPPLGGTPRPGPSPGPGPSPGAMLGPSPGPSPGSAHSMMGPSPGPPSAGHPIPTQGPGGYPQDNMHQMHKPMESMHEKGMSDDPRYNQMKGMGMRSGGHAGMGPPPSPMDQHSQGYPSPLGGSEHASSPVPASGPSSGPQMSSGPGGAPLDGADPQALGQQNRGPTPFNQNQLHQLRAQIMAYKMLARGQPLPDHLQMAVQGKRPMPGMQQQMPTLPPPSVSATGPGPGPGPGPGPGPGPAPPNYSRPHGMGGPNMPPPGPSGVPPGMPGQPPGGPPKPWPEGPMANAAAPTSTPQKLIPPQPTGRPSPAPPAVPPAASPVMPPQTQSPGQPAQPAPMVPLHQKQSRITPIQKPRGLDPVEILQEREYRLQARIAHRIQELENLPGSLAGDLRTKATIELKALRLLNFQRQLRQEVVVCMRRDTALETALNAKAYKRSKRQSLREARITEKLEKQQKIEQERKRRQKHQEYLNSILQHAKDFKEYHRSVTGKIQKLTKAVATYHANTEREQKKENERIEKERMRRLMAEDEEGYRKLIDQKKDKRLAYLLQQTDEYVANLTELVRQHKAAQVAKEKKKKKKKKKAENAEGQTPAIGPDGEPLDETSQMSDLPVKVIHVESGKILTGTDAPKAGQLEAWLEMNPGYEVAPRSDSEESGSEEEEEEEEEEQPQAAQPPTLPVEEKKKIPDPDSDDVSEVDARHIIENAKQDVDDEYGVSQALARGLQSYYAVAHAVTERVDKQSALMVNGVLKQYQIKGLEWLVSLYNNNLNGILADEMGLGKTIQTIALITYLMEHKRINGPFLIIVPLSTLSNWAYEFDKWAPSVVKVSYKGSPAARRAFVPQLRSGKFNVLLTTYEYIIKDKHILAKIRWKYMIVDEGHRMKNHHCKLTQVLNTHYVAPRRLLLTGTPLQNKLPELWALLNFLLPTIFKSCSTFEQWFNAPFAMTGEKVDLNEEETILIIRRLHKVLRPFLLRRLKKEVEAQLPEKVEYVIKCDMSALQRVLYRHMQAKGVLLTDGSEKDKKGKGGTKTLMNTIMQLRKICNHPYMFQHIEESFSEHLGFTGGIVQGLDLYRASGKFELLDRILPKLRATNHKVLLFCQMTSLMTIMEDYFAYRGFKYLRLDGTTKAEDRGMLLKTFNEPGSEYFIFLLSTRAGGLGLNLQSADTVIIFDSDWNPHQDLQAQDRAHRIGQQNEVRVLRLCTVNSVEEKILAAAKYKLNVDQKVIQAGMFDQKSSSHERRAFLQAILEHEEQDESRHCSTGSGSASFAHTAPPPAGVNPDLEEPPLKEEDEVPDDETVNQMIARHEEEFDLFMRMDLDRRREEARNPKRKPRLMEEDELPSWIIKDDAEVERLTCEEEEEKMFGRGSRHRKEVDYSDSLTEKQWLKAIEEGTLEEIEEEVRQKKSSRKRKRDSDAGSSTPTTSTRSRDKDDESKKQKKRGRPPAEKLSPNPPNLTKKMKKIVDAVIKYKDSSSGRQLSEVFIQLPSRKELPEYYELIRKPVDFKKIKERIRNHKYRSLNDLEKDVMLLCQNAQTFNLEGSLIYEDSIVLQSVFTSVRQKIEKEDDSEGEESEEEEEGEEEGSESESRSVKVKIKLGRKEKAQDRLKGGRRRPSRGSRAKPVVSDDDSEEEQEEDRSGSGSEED

The first assay has as its system A549 cells. As to the kind of experiment: High-throughput proliferation (HTP) assay for A549 cells (CellTiter-Glo, 7 days). In kind it is cell-based. The following applies: Homo sapiens, 168 h, read-out: A549 SMARCA2 IC50. As to the method:
Thawing vials: A549 cells (ATCC #CCL-185™) were thawed from a cryovial containing approximately 1.6×10^6 cells frozen in 70% F12K medium, 20% HI-FBS and 10% DMSO. Cells were thawed by submerging the bottom half of the vial in a 37° C. water bath and gently flicked until almost thawed. The cells were transferred into a 15 mL conical tube containing 9 mL of F12K medium+10% HI-FBS and then centrifuged at 200×g for 4 min before drawing off the media without disturbing the cell pellet in order to remove the DMSO. The cells were resuspended again in 15 mL of F12K fresh complete media+10% HI-FBS and grown up in a T75 flask at 37° C. with 5% CO2 Incubator. Viability was measured to obtain baseline.
Frozen stock vials preparation: The cell culture was transferred to a 50 mL conical tube, spun down to remove medium, and resuspended at 1-2×10^6 cells/mL in complete medium containing 10% DMSO. The culture was then stored for 24 hours at −80 degree C., (with the initial rate of freezing is −1 degree C. per minute in a freezing container), then transferred and stored in liquid nitrogen.
(§1) Routine subculture: Sub-confluent cultures (70-80%) were split every 4 days, seeding out at 1-2×10^6 cells/75 cm^2.
Day 0: Assay ready plates were prepared by dispensing 50 nL of compound or DMSO in the appropriate wells of 384-well white CulturPlates using Echo550. Using the Multiflo, A549 cells were plated at 50 μL/well in F12K complete media+10% HI-FBS+1% pen/strep at cell density determined [1,250 cells/mL (62.5 cells/well)] from growth curve.
Treated cells were incubated at 37° C., 5% CO2, relative humidity >90% for 7 days. CellTiter-Glo (CTG) ATP detection reagent was prepared according to manufacturer's specifications. Cell assay plates were removed from the incubator and brought to room temperature (RT). Using the MultiDrop liquid handler, 30 μL of CTG were added per well. Plates were placed on the multidrop dispenser shake for 5 seconds at room temperature (RT). Plates were incubated for 30 minutes in the dark at RT before measuring luminescence using the Envison2104.
Data analysis: Using the DMSO control wells as the 0% inhibition (high signal) control and the 10 μM Doxorubicin control wells as the 100% inhibition (low signal) control, percent inhibition EC50s (inflection point) and IC50 s were calculated for the compound dose responses.
A general note: Cellular ATP, detected with luciferase, serves as a proxy for viable cell number.
Take `O=C(Nc1cc(F)c(=O)n(CC(F)F)c1)c1cc(C#Cc2csc(C(F)(F)F)n2)c(Cl)s1` [Compound 126c]: the pIC50 is 5.40.

As to `N#Cc1cc(C(=O)Nc2cc([N+](=O)[O-])c(=O)n(CC(F)F)c2)sc1C(F)(F)F` [Compound 117d], the pIC50 is 5.71.

As for `CN(C)Cc1cc(C#Cc2cc(C(=O)Nc3cc(F)c(=O)n(CC(F)F)c3)sc2Cl)n(C)n1` [Compound 149c], the pIC50 is < 5.00.

In the case of `O=C(Nc1ccc(=O)n(CC(F)F)c1)c1cc(F)c(Cl)s1` [Compound 45c], the pIC50 was 5.37.

As to `O=C1Cc2ncc(C#Cc3cc(C(=O)NC4=NC(CC(F)F)C(=O)C(F)=C4)sc3Cl)cc2N1` (stereo not drawn) [Compound 58d], the pIC50 is < 5.00.

With `O=C(Nc1cc(F)c(=O)n(CC(F)F)c1)c1cc(C#CC23CC(CO)(C2)C3)c(Cl)s1` [Compound 135d], the pIC50 was 5.62.

On to `O=C(Nc1cc(F)c(=O)n(CC(F)F)c1)c1cc(C#Cc2ccc3c(c2)C(=O)NC3)c(Cl)s1` [Compound 145c], for which the pIC50 is < 5.00.

As to `O=C(Nc1cc(F)c(=O)n(CC(F)F)c1)c1cc(C#Cc2cocn2)c(Cl)s1` [Compound 136c], the pIC50 was 6.13.

In the case of `O=C(Nc1cc(F)c(=O)n(CC(F)F)c1)c1cc(C(F)(F)F)c(Cl)s1` [Compound 37c], the pIC50 is 5.04.

For `N#Cc1sc(C(=O)Nc2cc(F)c(=O)n(CC(F)F)c2)cc1C#Cc1ccncc1` [Compound 134c], the pIC50 is 6.04.

As to `O=C(Nc1cc(F)c(=O)n(CC(F)F)c1)c1cc(C#Cc2cnccn2)c(Cl)s1` [Compound 40c], the pIC50 was 5.55.

Take `O=C(Nc1ccc(=O)n(CC(F)F)c1)c1cc(Cl)c(C(F)(F)F)s1` [Compound 72c]: the pIC50 was 5.35.

The next assay concerns H358 cells. As to the kind of experiment: High-throughput proliferation (HTP) assay for H358 cells (CellTiter-Glo, 7 days). Format: cell-based. The following applies: Homo sapiens, NCI-H358, 168 h, read-out: H358 SMARCA2 IC50. How it is done:
Thawing vials: H358 cells (ATCC #CRL-5807™) were thawed from a cryovial containing approximately 1.6×10^6 cells frozen in 70% RPMI 1640 medium, 20% HI-FBS and 10% DMSO. Cells were thawed by submerging the bottom half of the vial in a 37° C. water bath and gently flicked until almost thawed. The cells were removed and transferred into a 15 mL conical tube containing 9 mL RPMI 1640 medium+10% HI-FBS and then centrifuged 200×g for 4 min before drawing off the media without disturbing the cell pellet to remove the DMSO. The cells were resuspended again in 15 mL of RPMI 1640 fresh complete media+10% HI-FBS and grown up in a T75 flask at 37° C. with 5% CO2 Incubator. Viability was measured to obtain baseline.
Preparing frozen stock vials: Cell density was counted in a stock flask. The culture was transferred to a 50 mL conical tube and spun down to remove medium, and then resuspend at 1-2×10^6 cells/mL in complete medium containing 10% DMSO and transferred to a 1 mL per vial.
as §1
Day 0: Assay ready plates were prepared by dispensing 50 nL of compound stock or DMSO in the appropriate wells of 384-well white CulturPlates using Echo550. Using the Multiflo, H358 cells at 50 μL/well were plated in RPMI 1640 complete media+10% HI-FBS+1% pen/strep at cell density determined [20,000 cells/mL (1,000 cells/well)] from growth curve. Treated cells were inclubated at 37° C., 5% CO2, relative humidity >90% for 7 days. CellTiter-Glo (CTG) ATP detection reagent was prepared according to manufacturer's specifications. Cell assay plates were removed from incubator and bring to room temperature (RT).
Using the MultiDrop liquid handler, 30 μL of CTG were added per well. Plates were placed on the multidrop dispenser shake for 5 seconds at RT. Plates were incubated for 30 minutes in the dark at RT before measuring luminescence using the Envison2104.
Data analysis: Using the DMSO control wells as the 0% inhibition (high signal) control and the 10 uM Doxorubicin control wells as the 100% inhibition (low signal) control, percent inhibition EC50s (inflection point) and IC50s were calculated for the compound dose responses.
With `O=C(Nc1cc(F)c(=O)n(CC(F)F)c1)c1cc(C#Cc2csc(C(F)(F)F)n2)c(Cl)s1` [Compound 126c], the pIC50 was < 5.00.

Turning to `N#Cc1cc(C(=O)Nc2cc([N+](=O)[O-])c(=O)n(CC(F)F)c2)sc1C(F)(F)F` [Compound 117d], the pIC50 was 5.64.

With `CN(C)Cc1cc(C#Cc2cc(C(=O)Nc3cc(F)c(=O)n(CC(F)F)c3)sc2Cl)n(C)n1` [Compound 149c], the pIC50 is < 5.00.

Take `O=C(Nc1ccc(=O)n(CC(F)F)c1)c1cc(F)c(Cl)s1` [Compound 45c]: the pIC50 is < 5.00.

With `O=C1Cc2ncc(C#Cc3cc(C(=O)NC4=NC(CC(F)F)C(=O)C(F)=C4)sc3Cl)cc2N1` (stereo not drawn) [Compound 58d], the pIC50 is < 5.00.

For `O=C(Nc1cc(F)c(=O)n(CC(F)F)c1)c1cc(C#CC23CC(CO)(C2)C3)c(Cl)s1` [Compound 135d], the pIC50 was < 5.00.

Turning to `O=C(Nc1cc(F)c(=O)n(CC(F)F)c1)c1cc(C#Cc2ccc3c(c2)C(=O)NC3)c(Cl)s1` [Compound 145c], the pIC50 was < 5.00.

As for `O=C(Nc1cc(F)c(=O)n(CC(F)F)c1)c1cc(C#Cc2cocn2)c(Cl)s1` [Compound 136c], the pIC50 was < 5.00.

In the case of `O=C(Nc1cc(F)c(=O)n(CC(F)F)c1)c1cc(C(F)(F)F)c(Cl)s1` [Compound 37c], the pIC50 is < 5.00.

`N#Cc1sc(C(=O)Nc2cc(F)c(=O)n(CC(F)F)c2)cc1C#Cc1ccncc1` [Compound 134c]: the pIC50 is 5.41.

Regarding `O=C(Nc1cc(F)c(=O)n(CC(F)F)c1)c1cc(C#Cc2cnccn2)c(Cl)s1` [Compound 40c], the pIC50 was < 5.00.

Regarding `O=C(Nc1ccc(=O)n(CC(F)F)c1)c1cc(Cl)c(C(F)(F)F)s1` [Compound 72c], the pIC50 is < 5.00.

The next assay addresses FL-SMARCA4 (Homo sapiens, UniProt P51532). As to the kind of experiment: SMARCA4 ATPase activity assay (ADP-Glo, chicken mononucleosome substrate). As to conditions: FL-SMARCA4 IC50. A general note: ADP-Glo first removes unused ATP, then detects ADP through luciferase.
As to `N#Cc1cc(C(=O)Nc2cc([N+](=O)[O-])c(=O)n(CC(F)F)c2)sc1C(F)(F)F` [Compound 117d], the pIC50 is < 4.30.

With `O=C1Cc2ncc(C#Cc3cc(C(=O)NC4=NC(CC(F)F)C(=O)C(F)=C4)sc3Cl)cc2N1` (stereo not drawn) [Compound 58d], the pIC50 is 6.99.

`O=C(Nc1cc(F)c(=O)n(CC(F)F)c1)c1cc(C#CC23CC(CO)(C2)C3)c(Cl)s1` [Compound 135d] gave a pIC50 of 6.48.

The same assay, now with this note: FL-SMARCA4 IC>50, Table 3c.2; ATPase assay, enzyme 5 nM, ATP 250 uM, chicken mononucleosome 10 nM, 30 min preincubation.
Consider `O=C(Nc1cc(F)c(=O)n(CC(F)F)c1)c1cc(C#Cc2csc(C(F)(F)F)n2)c(Cl)s1` [Compound 126c], for which the pIC50 was 6.02.

`CN(C)Cc1cc(C#Cc2cc(C(=O)Nc3cc(F)c(=O)n(CC(F)F)c3)sc2Cl)n(C)n1` [Compound 149c] gave a pIC50 of 4.79.

With `O=C(Nc1ccc(=O)n(CC(F)F)c1)c1cc(F)c(Cl)s1` [Compound 45c], the pIC50 is 6.63.

`O=C(Nc1cc(F)c(=O)n(CC(F)F)c1)c1cc(C#Cc2ccc3c(c2)C(=O)NC3)c(Cl)s1` [Compound 145c]: the pIC50 was 6.68.

With `O=C(Nc1cc(F)c(=O)n(CC(F)F)c1)c1cc(C#Cc2cocn2)c(Cl)s1` [Compound 136c], the pIC50 is 6.93.

The compound `O=C(Nc1cc(F)c(=O)n(CC(F)F)c1)c1cc(C(F)(F)F)c(Cl)s1` [Compound 37c] had a pIC50 of 5.60.

Compound `N#Cc1sc(C(=O)Nc2cc(F)c(=O)n(CC(F)F)c2)cc1C#Cc1ccncc1` [Compound 134c] gave a pIC50 of 7.89.

`O=C(Nc1cc(F)c(=O)n(CC(F)F)c1)c1cc(C#Cc2cnccn2)c(Cl)s1` [Compound 40c]: the pIC50 is 6.59.

As to `O=C(Nc1ccc(=O)n(CC(F)F)c1)c1cc(Cl)c(C(F)(F)F)s1` [Compound 72c], the pIC50 is 5.81.

A further assay deals with T1, FL-SMARCA2 (full-length human SMARCA2 isoform 1) (Homo sapiens, UniProt P51531).
T1 construct: FLAG tag (YKDDDDK) (C); made in house; host or cells: Sf21 insect cells (baculovirus, pFastBacI)
T1 sequence (P51531 with tags, fused parts or gaps): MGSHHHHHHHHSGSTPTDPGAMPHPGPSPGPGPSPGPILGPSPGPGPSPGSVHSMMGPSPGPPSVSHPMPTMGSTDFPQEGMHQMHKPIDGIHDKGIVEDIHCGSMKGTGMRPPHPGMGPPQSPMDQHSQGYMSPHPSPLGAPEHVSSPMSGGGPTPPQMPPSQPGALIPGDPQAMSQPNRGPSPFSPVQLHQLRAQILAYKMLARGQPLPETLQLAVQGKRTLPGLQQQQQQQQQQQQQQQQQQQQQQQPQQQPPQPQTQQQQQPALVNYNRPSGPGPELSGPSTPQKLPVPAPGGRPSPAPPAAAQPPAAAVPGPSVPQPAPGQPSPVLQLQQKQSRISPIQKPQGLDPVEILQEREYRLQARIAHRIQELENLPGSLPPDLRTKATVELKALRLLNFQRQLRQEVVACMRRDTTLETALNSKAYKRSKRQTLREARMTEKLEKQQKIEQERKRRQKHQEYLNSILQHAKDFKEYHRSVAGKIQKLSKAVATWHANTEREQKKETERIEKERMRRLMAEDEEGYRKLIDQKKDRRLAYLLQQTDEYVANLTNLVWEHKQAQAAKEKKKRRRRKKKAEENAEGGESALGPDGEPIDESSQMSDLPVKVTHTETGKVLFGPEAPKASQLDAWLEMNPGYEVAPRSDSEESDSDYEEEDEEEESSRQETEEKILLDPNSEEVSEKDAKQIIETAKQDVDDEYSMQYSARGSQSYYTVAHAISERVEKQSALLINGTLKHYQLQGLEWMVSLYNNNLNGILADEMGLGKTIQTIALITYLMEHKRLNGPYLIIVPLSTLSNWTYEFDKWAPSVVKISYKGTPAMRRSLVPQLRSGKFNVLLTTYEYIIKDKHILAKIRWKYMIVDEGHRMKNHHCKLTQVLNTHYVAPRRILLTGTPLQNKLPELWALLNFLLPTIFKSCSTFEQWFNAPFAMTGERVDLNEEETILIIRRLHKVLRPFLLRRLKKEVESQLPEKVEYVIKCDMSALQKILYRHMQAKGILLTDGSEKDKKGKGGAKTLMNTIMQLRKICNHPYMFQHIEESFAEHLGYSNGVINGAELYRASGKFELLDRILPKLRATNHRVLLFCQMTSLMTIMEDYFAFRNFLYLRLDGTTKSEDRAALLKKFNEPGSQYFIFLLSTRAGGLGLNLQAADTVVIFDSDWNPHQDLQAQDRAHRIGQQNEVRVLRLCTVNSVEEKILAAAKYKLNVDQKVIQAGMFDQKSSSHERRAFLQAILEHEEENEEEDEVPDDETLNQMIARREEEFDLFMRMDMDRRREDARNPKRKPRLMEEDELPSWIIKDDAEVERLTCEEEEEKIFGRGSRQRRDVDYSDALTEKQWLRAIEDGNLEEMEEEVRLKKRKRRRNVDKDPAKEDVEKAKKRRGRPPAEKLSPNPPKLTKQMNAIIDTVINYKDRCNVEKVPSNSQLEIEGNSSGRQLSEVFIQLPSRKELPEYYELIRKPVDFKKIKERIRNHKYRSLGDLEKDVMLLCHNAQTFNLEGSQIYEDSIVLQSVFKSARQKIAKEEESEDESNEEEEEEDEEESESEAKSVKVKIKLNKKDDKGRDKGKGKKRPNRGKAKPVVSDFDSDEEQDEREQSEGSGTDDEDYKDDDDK
As to the kind of experiment: SMARCA2 ATPase activity assay (ADP-Glo, chicken mononucleosome substrate). In kind it is biochemical. The following applies: Table 3c.1; ATPase assay, enzyme 5 nM, ATP 250 uM, chicken mononucleosome 10 nM, 30 min preincubation.
`O=C(Nc1cc(F)c(=O)n(CC(F)F)c1)c1cc(C#Cc2csc(C(F)(F)F)n2)c(Cl)s1` [Compound 126c] gave a pIC50 of 6.63.

The compound `CN(C)Cc1cc(C#Cc2cc(C(=O)Nc3cc(F)c(=O)n(CC(F)F)c3)sc2Cl)n(C)n1` [Compound 149c] had a pIC50 of 5.10.

`O=C(Nc1ccc(=O)n(CC(F)F)c1)c1cc(F)c(Cl)s1` [Compound 45c] had a pIC50 of 7.01.

The compound `O=C(Nc1cc(F)c(=O)n(CC(F)F)c1)c1cc(C#Cc2ccc3c(c2)C(=O)NC3)c(Cl)s1` [Compound 145c] had a pIC50 of 7.09.

With `O=C(Nc1cc(F)c(=O)n(CC(F)F)c1)c1cc(C#Cc2cocn2)c(Cl)s1` [Compound 136c], the pIC50 was 7.58.

`O=C(Nc1cc(F)c(=O)n(CC(F)F)c1)c1cc(C(F)(F)F)c(Cl)s1` [Compound 37c] had a pIC50 of 6.32.

`N#Cc1sc(C(=O)Nc2cc(F)c(=O)n(CC(F)F)c2)cc1C#Cc1ccncc1` [Compound 134c] gave a pIC50 of 8.09.

Consider `O=C(Nc1cc(F)c(=O)n(CC(F)F)c1)c1cc(C#Cc2cnccn2)c(Cl)s1` [Compound 40c], for which the pIC50 was 7.00.

In the case of `O=C(Nc1ccc(=O)n(CC(F)F)c1)c1cc(Cl)c(C(F)(F)F)s1` [Compound 72c], the pIC50 was 6.68.

Staying with this assay, now noted: Table 3d.1; ATPase assay, enzyme 5 nM, ATP 250 uM, chicken mononucleosome 10 nM, 30 min preincubation; read-out: FL-SMARCA2 IC>50.
Regarding `N#Cc1cc(C(=O)Nc2cc([N+](=O)[O-])c(=O)n(CC(F)F)c2)sc1C(F)(F)F` [Compound 117d], the pIC50 was 4.65.

Take `O=C1Cc2ncc(C#Cc3cc(C(=O)NC4=NC(CC(F)F)C(=O)C(F)=C4)sc3Cl)cc2N1` (stereo not drawn) [Compound 58d]: the pIC50 was 7.21.

Consider `O=C(Nc1cc(F)c(=O)n(CC(F)F)c1)c1cc(C#CC23CC(CO)(C2)C3)c(Cl)s1` [Compound 135d], for which the pIC50 is 6.80.

The values above are taken from patent US20220356174A1, “PYRIDIN-2-ONE COMPOUNDS USEFUL AS SMARCA2 ANTAGONISTS” (Epizyme, Inc., priority 2018, published 2022).
